Measurements as given in patent US20230277534A1 (Plexxikon Inc., priority 2011, published 2023).

Columns and labels:
B-Raf V600E = B-Raf V600E (Homo sapiens (Human), UniProt P15056, V600E); test: B-Raf V600E kinase biochemical activity assay (AlphaScreen, biotin-MEK1 substrate); settings: 100 μM ATP
Method: Assays for biochemical and cell based activity are known in the art, for example, as described in PCT publication WO 2007/002433, the disclosure of which is hereby incorporated by reference as it relates to such assays. For example, the biochemical activity IC50 values are determined with respect to inhibition of B-Raf V600E kinase activity or p-Erk kinase activity, where inhibition of phosphorylation of a peptide substrate is measured as a function of compound concentration. Compounds to be tested are diluted in dimethyl sulfoxide to a concentration of 0.1 mM. These are serially diluted 15 μL into 30 μL of dimethyl sulfoxide seven times in 96 well plates for a total of 8 dilution points, and for each dilution point 1 μL is added to a well of an assay plate. Plates are prepared such that each well in a 384 well plate contains 1 μL of compound in 10 μL volume with 0.1 ng Raf enzyme (i.e. any of B-Raf, c-Raf-1 or B-Raf V600E, Upstate Biotechnology or prepared by methods known to one of skill in the art), 50 mM HEPES, pH 7.0, 50 mM NaCl, 2 mM MgCl2, 1 mM MnCl2, 0.01% Tween-20, 1 mM DTT, and 100 nM biotin-MEK1 as substrate. The reaction is started with addition of 10 μL of 200 μM ATP (i.e. final 100 μM ATP). After incubation of the kinase reaction for 45 minutes at room temperature, 5 μL/well of Stop Solution is added (25 mM Hepes pH 7.5, 100 mM EDTA, 0.01% BSA with donor beads (Streptavidin coated beads, Perkin Elmer), acceptor beads (Protein A coated, Perkin Elmer), and anti phosphor MEK1/2 antibody (CellSignal), each at final concentration 10 μg/mL). The plates are incubated for 3 hours at room temperature and read on Envision reader (Perkin Elmer). Phosphorylation of Mek1 results in binding of the anti-phosphor-MEK1/2antibody and association of the donor and acceptor beads such that signal correlates with kinase activity. The signal vs. compound concentration is used to determine the IC50.

[1] = test system: COLO205 colon adenocarcinoma cells (B-Raf V600E mutation); test: COLO205 cell growth inhibition (ATPlite); assay type: cell-based; settings: Homo sapiens, COLO 205, 72 h, 3 days
Method: Compounds are assessed in a variety of cell based assays.
On day 1, cells are counted, then centrifuged in a conical tube for 5 minutes at 1000 rpm.
On day 2, compound at a maximum concentration of 5 mM is serially diluted 1:3 (e.g. 10 μL with 30 μL dimethyl sulfoxide) for a total of 8 point titration with DMSO as a control. A 1 μL aliquot of each dilution point and control is added to 249 μL growth media and 50 μL is added to a well containing cells, providing 10 μM compound at the maximum concentration point. The cells are incubated for 3 days at 37° C. in 5% CO2.
ATPlite is added 25 μL to each well, shake for 2 minutes, and the cells are incubated at room temperature for 10 minutes, then luminescence is read on Safire reader. The measured luminescence correlates directly with cell number, such that the reading as a function of compound concentration is used to determine the IC50 value.

Chain of B-Raf V600E (P15056 whole entry V600E): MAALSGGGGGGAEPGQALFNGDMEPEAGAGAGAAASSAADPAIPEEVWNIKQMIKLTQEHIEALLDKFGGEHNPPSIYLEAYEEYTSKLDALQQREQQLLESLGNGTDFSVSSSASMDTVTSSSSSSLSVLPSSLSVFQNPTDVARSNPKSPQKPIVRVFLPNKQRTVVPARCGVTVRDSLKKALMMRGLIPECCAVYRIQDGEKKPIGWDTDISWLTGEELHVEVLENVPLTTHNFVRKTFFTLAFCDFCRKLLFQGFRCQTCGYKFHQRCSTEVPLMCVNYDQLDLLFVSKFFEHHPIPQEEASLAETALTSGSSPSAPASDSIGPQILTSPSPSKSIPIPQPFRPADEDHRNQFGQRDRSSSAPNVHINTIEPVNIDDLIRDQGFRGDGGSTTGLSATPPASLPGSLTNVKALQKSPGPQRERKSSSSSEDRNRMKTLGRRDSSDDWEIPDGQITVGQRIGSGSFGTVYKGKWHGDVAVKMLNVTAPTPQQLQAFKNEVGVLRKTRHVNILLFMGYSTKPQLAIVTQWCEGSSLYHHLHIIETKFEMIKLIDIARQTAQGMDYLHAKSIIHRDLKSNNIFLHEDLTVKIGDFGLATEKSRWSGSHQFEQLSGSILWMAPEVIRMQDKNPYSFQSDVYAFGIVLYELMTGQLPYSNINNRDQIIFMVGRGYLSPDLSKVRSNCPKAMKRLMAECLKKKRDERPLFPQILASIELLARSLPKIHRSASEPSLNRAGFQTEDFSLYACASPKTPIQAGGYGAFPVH

SMILES	IC50 (B-Raf V600E)	IC50 [1]
CC(C)NS(=O)(=O)Nc1cccc(C(=O)c2c[nH]c3ncc(I)cc23)c1F [Compound P-0071, [2-fluoro-3-(isopropylsulfamoylamino)phenyl]-(5-iodo-1H-pyrrolo[2,3-b]pyridin-3-yl)methanone]	> 0.1 µM	> 1 µM
COc1ncc(-c2cnc3[nH]cc(C(=O)c4cccc(NS(=O)(=O)N(C)CC(C)C)c4F)c3c2)cn1 [Compound P-0072, 3-[2-fluoro-3-[[isobutyl(methyl)sulfamoyl]amino]benzoyl]-5-(2-methoxypyrimidin-5-yl)-1H-pyrrolo[2,3-b]pyridine]	> 0.1 µM	> 1 µM
COCCN(C)S(=O)(=O)Nc1cccc(C(=O)c2c[nH]c3ncc(-c4cnc(OC)nc4)cc23)c1F [Compound P-0073, 3-[2-fluoro-3-[[2-methoxyethyl(methyl)sulfamoyl]amino]benzoyl]-5-(2-methoxypyrimidin-5-yl)-1H-pyrrolo[2,3-b]pyridine]	> 0.1 µM	> 1 µM
COc1ncc(-c2cnc3[nH]cc(C(=O)c4cccc(NS(=O)(=O)N5CCCC5C)c4F)c3c2)cn1 (stereo not shown) [Compound P-0074, N-[2-fluoro-3-[5-(2-methoxypyrimidin-5-yl)-1H-pyrrolo[2,3-b]pyridine-3-carbonyl]phenyl]-2-methyl-pyrrolidine-1-sulfonamide]	> 0.1 µM	> 1 µM
CCN(C)S(=O)(=O)Nc1cccc(C(=O)c2c[nH]c3ncc(-c4ccc(N(C)C)nc4)cc23)c1F [Compound P-0076, 5-[6-(dimethylamino)-3-pyridyl]-3-[3-[[ethyl(methyl)sulfamoyl]amino]-2-fluoro-benzoyl]-1H-pyrrolo[2,3-b]pyridine]	< 0.1 µM	< 1 µM
CCN(C)S(=O)(=O)Nc1cccc(C(=O)c2c[nH]c3ncc(-c4cnc(NC5CC5)nc4)cc23)c1F [Compound P-0077, 5-[2-(cyclopropylamino)pyrimidin-5-yl]-3-[3-[[ethyl(methyl)sulfamoyl]amino]-2-fluoro-benzoyl]-1H-pyrrolo[2,3-b]pyridine]	< 0.1 µM	< 1 µM
CCCN(C)S(=O)(=O)Nc1ccc(F)c(C(=O)c2c[nH]c3ncc(-c4cnc(C5CC5)nc4)cc23)c1F [Compound P-0078, 5-(2-cyclopropylpyrimidin-5-yl)-3-[2,6-difluoro-3-[[methyl(propyl)sulfamoyl]amino]benzoyl]-1H-pyrrolo[2,3-b]pyridine]	< 0.1 µM	> 1 µM
COCCN(C)S(=O)(=O)Nc1cccc(C(=O)c2c[nH]c3ncc(-c4ccc(C5(C#N)CC5)cc4)cc23)c1F [Compound P-0080, 5-[4-(1-cyanocyclopropyl)phenyl]-3-[2-fluoro-3-[[2-methoxyethyl(methyl)sulfamoyl]amino]benzoyl]-1H-pyrrolo[2,3-b]pyridine]	< 0.1 µM	> 1 µM
COCCN(C)S(=O)(=O)Nc1cccc(C(=O)c2c[nH]c3ncc(-c4cnc(NC5CC5)nc4)cc23)c1F [Compound P-0081, 5-[2-(cyclopropylamino)pyrimidin-5-yl]-3-[2-fluoro-3-[[2-methoxyethyl(methyl)sulfamoyl]amino]benzoyl]-1H-pyrrolo[2,3-b]pyridine]	< 0.1 µM	< 1 µM
CN(CC1CC1)S(=O)(=O)Nc1cccc(C(=O)c2c[nH]c3ncc(-c4cnc(C5CC5)nc4)cc23)c1F [Compound P-0084, 3-[3-[[cyclopropylmethyl(methyl)sulfamoyl]amino]-2-fluoro-benzoyl]-5-(2-cyclopropylpyrimidin-5-yl)-1H-pyrrolo[2,3-b]pyridine]	< 0.1 µM	< 1 µM
COCCN(C)S(=O)(=O)Nc1cccc(C(=O)c2c[nH]c3ncc(-c4cnc(C5CC5)nc4)cc23)c1F [Compound P-0085, 5-(2-cyclopropylpyrimidin-5-yl)-3-[2-fluoro-3-[[2-methoxyethyl(methyl)sulfamoyl]amino]benzoyl]-1H-pyrrolo[2,3-b]pyridine]	< 0.1 µM	> 1 µM
COc1ncc(-c2cnc3[nH]cc(C(=O)c4cccc(NS(=O)(=O)N5CC(F)(F)C5)c4F)c3c2)cn1 [Compound P-0088, 3,3-difluoro-N-[2-fluoro-3-[5-(2-methoxypyrimidin-5-yl)-1H-pyrrolo[2,3-b]pyridine-3-carbonyl]phenyl]azetidine-1-sulfonamide]	< 0.1 µM	> 1 µM
CCN(C)S(=O)(=O)Nc1cccc(C(=O)c2c[nH]c3ncnc(N[C@@H](C)C4CC4)c23)c1F [Compound P-0089, 4-[[(1S)-1-cyclopropylethyl]amino]-5-[3-[[ethyl(methyl)sulfamoyl]amino]-2-fluoro-benzoyl]-7H-pyrrolo[2,3-d]pyrimidine]	< 0.1 µM	> 1 µM
N#Cc1ccc(-c2cnc3[nH]cc(C(=O)c4cccc(NS(=O)(=O)N5CCCC5)c4F)c3c2)cc1 [Compound P-0090, N-[3-[5-(4-cyanophenyl)-1H-pyrrolo[2,3-b]pyridine-3-carbonyl]-2-fluoro-phenyl]pyrrolidine-1-sulfonamide]	< 0.1 µM	< 1 µM
Cc1ncc(-c2cnc3[nH]cc(C(=O)c4cccc(NS(=O)(=O)N5CCCC5)c4F)c3c2)cn1 [Compound P-0092, N-[2-fluoro-3-[5-(2-methylpyrimidin-5-yl)-1H-pyrrolo[2,3-b]pyridine-3-carbonyl]phenyl]pyrrolidine-1-sulfonamide]	< 0.1 µM	< 1 µM
N#Cc1cncc(-c2cnc3[nH]cc(C(=O)c4cccc(NS(=O)(=O)N5CCCC5)c4F)c3c2)c1 [Compound P-0093, N-[3-[5-(5-cyano-3-pyridyl)-1H-pyrrolo[2,3-b]pyridine-3-carbonyl]-2-fluoro-phenyl]pyrrolidine-1-sulfonamide]	< 0.1 µM	< 1 µM
N#Cc1ccc(-c2cnc3[nH]cc(C(=O)c4cccc(NS(=O)(=O)N5CCCC5)c4F)c3c2)cn1 [Compound P-0094, N-[3-[5-(6-cyano-3-pyridyl)-1H-pyrrolo[2,3-b]pyridine-3-carbonyl]-2-fluoro-phenyl]pyrrolidine-1-sulfonamide]	< 0.1 µM	< 1 µM
O=C(c1cccc(NS(=O)(=O)N2CCCC2)c1F)c1c[nH]c2ncc(-c3ccc(C(F)(F)F)nc3)cc12 [Compound P-0095, N-[2-fluoro-3-[5-[6-(trifluoromethyl)-3-pyridyl]-1H-pyrrolo[2,3-b]pyridine-3-carbonyl]phenyl]pyrrolidine-1-sulfonamide]	< 0.1 µM	< 1 µM
Cc1ncc(-c2cnc3[nH]cc(C(=O)c4cccc(NS(=O)(=O)N(C)C)c4F)c3c2)cn1 [Compound P-0097, 3-[3-(dimethylsulfamoylamino)-2-fluoro-benzoyl]-5-(2-methylpyrimidin-5-yl)-1H-pyrrolo[2,3-b]pyridine]	< 0.1 µM	< 1 µM
CN(C)S(=O)(=O)Nc1cccc(C(=O)c2c[nH]c3ncc(-c4cncc(C#N)c4)cc23)c1F [Compound P-0098, 5-(5-cyano-3-pyridyl)-3-[3-(dimethylsulfamoylamino)-2-fluoro-benzoyl]-1H-pyrrolo[2,3-b]pyridine]	< 0.1 µM	< 1 µM
CN(C)S(=O)(=O)Nc1cccc(C(=O)c2c[nH]c3ncc(-c4ccc(C#N)nc4)cc23)c1F [Compound P-0099, 5-(6-cyano-3-pyridyl)-3-[3-(dimethylsulfamoylamino)-2-fluoro-benzoyl]-1H-pyrrolo[2,3-b]pyridine]	< 0.1 µM	> 1 µM
CCN(C)S(=O)(=O)Nc1cccc(C(=O)c2c[nH]c3ncc(-c4cnc(C#N)nc4)cc23)c1F [Compound P-0100, 5-(2-cyanopyrimidin-5-yl)-3-[3-[[ethyl(methyl)sulfamoyl]amino]-2-fluoro-benzoyl]-1H-pyrrolo[2,3-b]pyridine]	< 0.1 µM	> 1 µM
CCN(C)S(=O)(=O)Nc1cccc(C(=O)c2c[nH]c3ncc(-c4cncc(C#N)c4)cc23)c1F [Compound P-0101, 5-(5-cyano-3-pyridyl)-3-[3-[[ethyl(methyl)sulfamoyl]amino]-2-fluoro-benzoyl]-1H-pyrrolo[2,3-b]pyridine]	< 0.1 µM	> 1 µM
